SMILES strings stand for the structures. Counter-ions that a name gives are not always drawn.

In the test the target is catalytic domain of human PARP14 (Homo sapiens (Human), UniProt Q460N5). The experiment in a line: Enzymatic assay for inhibition of PARP14 (DELFIA, auto-modification with biotin-NAD). The format is biochemical. To be noted: auto-modification of PARP14 by biotin-NAD, 50 nM PARP14, 3 μM biotin-NAD. The method, boiled down: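 His-TEV-tagged PARP14 catalytic domain (50 nM) preincubated with compound 30 min at 25 °C, then auto-modified with 3 μM biotin-NAD for 3 h at 25 °C in HEPES pH 8 buffer with DTT. IC50 from 4-parameter fit, rucaparib and DMSO as controls.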
Chain of catalytic domain of human PARP14 (Q460N5 1611-1801): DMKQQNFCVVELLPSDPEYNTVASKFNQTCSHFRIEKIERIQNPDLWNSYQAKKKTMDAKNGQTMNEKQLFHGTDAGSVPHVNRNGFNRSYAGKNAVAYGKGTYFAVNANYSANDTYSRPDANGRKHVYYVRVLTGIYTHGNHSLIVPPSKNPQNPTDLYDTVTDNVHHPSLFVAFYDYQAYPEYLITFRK
By IC50 is commonly meant the concentration that inhibits the measured activity by half. High values mean a need for much substance, low ones inhibition by little substance. Compound `CS(=O)(=O)N1CC(Nc2ccc3c(=O)[nH]c(CSC4CCOCC4)nc3c2)C1` [Example 195, 7-((1-(methylsulfonyl)azetidin-3-yl)amino)-2-(((tetrahydro-2H-pyran-4-yl)thio)methyl)quinazolin-4(3H)-one] gave an IC50 below 1000 nM.
In the case of `CS(=O)(=O)N1CCC[C@@H](Nc2ccc3c(=O)[nH]c(CSC4CCNCC4)nc3c2)C1` [Example 196, (R)-7-((1-(methylsulfonyl)piperidin-3-yl)amino)-2-((piperidin-4-ylthio)methyl)quinazolin-4(3H)-one], the IC50 was below 1000 nM.
The value for `O=c1[nH]c(CSC2CCOCC2)nc2cc(OC3CCCC3)ccc12` [Example 197, 7-(cyclopentyloxy)-2-(((tetrahydro-2H-pyran-4-yl)thio)methyl)quinazolin-4(3H)-one] was below 1000 nM; that for `Cc1cccc2c(=O)[nH]c(CSC3CCCOCC3)nc12` (centres unmarked) [Example 198, 8-methyl-2-((oxepan-4-ylthio)methyl)quinazolin-4(3H)-one] was 1000 to 10000 nM.
Compound `O=c1[nH]c(CS[C@H]2CC[C@H](O)CC2)nc2cc(NC3CCCC3)cc(C(F)(F)F)c12` [Example 199, 7-(cyclopentylamino)-2-((((1R,4R)-4-hydroxycyclohexyl)thio)methyl)-5-(trifluoromethyl)quinazolin-4(3H)-one] returned an IC50 below 1000 nM.
For the compound `O=c1[nH]c(CSC2CCNCC2)nc2cc(NC3CCC3)ccc12` [Example 200, 7-(cyclobutylamino)-2-((piperidin-4-ylthio)methyl)quinazolin-4(3H)-one], the IC50 was below 1000 nM.
For `CS(=O)(=O)N1CCC[C@@H](Nc2ccc3c(=O)[nH]c(CSC4CCOCC4)nc3n2)C1` [Example 201, (R)-7-((1-(methylsulfonyl)piperidin-3-yl)amino)-2-(((tetrahydro-2H-pyran-4-yl)thio)methyl)pyrido[2,3-d]pyrimidin-4(3H)-one], the IC50 was below 1000 nM.
The value for `CC(C)Cc1ccc2c(=O)[nH]c(CSC3CCOCC3)nc2c1` [Example 202, 7-Isobutyl-2-(((tetrahydro-2H-pyran-4-yl)thio)methyl)quinazolin-4(3H)-one] was 1000 to 10000 nM; that for `Cc1cc(NC2CCCC2)cc2nc(CSC3CCOCC3)[nH]c(=O)c12` [Example 203, 7-(Cyclopentylamino)-5-methyl-2-(((tetrahydro-2H-pyran-4-yl)thio)methyl) quinazolin-4(3H)-one] was below 1000 nM.
Regarding `Cc1cccc2c(=O)[nH]c(CS[C@H]3CC[C@@H](C(N)=O)CC3)nc12` [Example 204, cis-4-(((8-Methyl-4-oxo-3,4-dihydroquinazolin-2-yl)methyl)thio)cyclohexane-1-carboxamide], the IC50 was in the range of 1000 to 10000 nM.
For `Cc1cccc2c(=O)[nH]c(CS[C@H]3CC[C@H](C(N)=O)CC3)nc12` [Example 205, trans-4-(((8-Methyl-4-oxo-3,4-dihydroquinazolin-2-yl)methyl)thio)cyclohexane-1-carboxamide] the value was below 1000 nM; for `O=c1[nH]c(CSC2CCNCC2)nc2cc(NC3CCCC3)cc(Cl)c12` [Example 206, 5-Chloro-7-(cyclopentylamino)-2-((piperidin-4-ylthio)methyl)quinazolin-4(3H)-one Hydrochloride], below 1000 nM; for `COc1cc(NC2CCCC2)cc2nc(CSC3CCOCC3)[nH]c(=O)c12` [Example 207, 7-(Cyclopentylamino)-5-methoxy-2-(((tetrahydro-2H-pyran-4-yl)thio)methyl)quinazolin-4(3H)-one], above 10000 nM.
`COC(=O)N1CCC(SCc2nc3cc(NC4CCCC4)ccc3c(=O)[nH]2)CC1` [Example 208, Methyl 4-(((7-(cyclopentylamino)-4-oxo-3,4-dihydroquinazolin-2-yl)methyl)thio)piperidine-1-carboxylate] came in with an IC50 below 1000 nM.
For the compound `Cc1cccc2c(=O)[nH]c(CS[C@H]3CC[C@H](CC(N)=O)CC3)nc12` [Example 209, 2-((trans)-4-(((8-Methyl-4-oxo-3,4-dihydroquinazolin-2-yl)methyl)thio)cyclohexyl) acetamide], the IC50 is below 1000 nM.
For `O=c1[nH]c(CS[C@@H]2CCNC[C@H]2F)nc2cc(NC3CCCC3)cc(F)c12` [Example 211b, 7-(Cyclopentylamino)-5-fluoro-2-((((3R,4R)-3-fluoropiperidin-4-yl)thio)methyl)quinazolin-4(3H)-one], the IC50 was below 1000 nM.
The value for `O=c1[nH]c(CS[C@@H]2CCNC[C@@H]2F)nc2cc(NC3CCCC3)cc(F)c12` [Example 213b, 7-(cyclopentylamino)-5-fluoro-2-((((3S,4R)-3-fluoropiperidin-4-yl)thio)methyl)quinazolin-4(3H)-one] was below 1000 nM.
Take `O=C(CO)N1CCC(SCc2nc3cc(NC4CCCC4)cc(F)c3c(=O)[nH]2)CC1` [Example 214, 7-(Cyclopentylamino)-5-fluoro-2-(((1-(2-hydroxyacetyl)piperidin-4-yl)thio)methyl)quinazolin-4(3H)-one]: the IC50 is below 1000 nM.
In turn, `O=c1[nH]c(CSC2CCCCC2)nc2cc(NC3CCCC3)cc(F)c12` [Example 215, 2-((Cyclohexylthio)methyl)-7-(cyclopentylamino)-5-fluoroquinazolin-4(3H)-one] showed a 50% inhibitory concentration (IC50) below 1000 nM.
As to `O=c1[nH]c(CS[C@H]2CC[C@@H](C(=O)O)CC2)nc2cc(NC3CCCC3)cc(F)c12` [Example 216, cis-4-(((7-(Cyclopentylamino)-5-fluoro-4-oxo-3,4-dihydroquinazolin-2-yl)methyl)thio)cyclohexane-1-carboxylic acid], the IC50 was in the range of 1000 to 10000 nM.
`O=c1[nH]c(CS[C@H]2CC[C@H](C(=O)O)CC2)nc2cc(NC3CCCC3)cc(F)c12` [Example 217, trans-4-(((7-(Cyclopentylamino)-5-fluoro-4-oxo-3,4-dihydroquinazolin-2-yl)methyl)thio)cyclohexane-1-carboxylic acid] registered an IC50 below 1000 nM.
In turn, `NC(=O)[C@H]1CC[C@H](SCc2nc3cc(NC4CCCC4)cc(F)c3c(=O)[nH]2)CC1` [Example 218, trans-4-(((7-(Cyclopentylamino)-5-fluoro-4-oxo-3,4-dihydroquinazolin-2-yl)methyl)thio)cyclohexane-1-carboxamide] came in with an IC50 below 1000 nM.
Compound `O=c1[nH]c(CSC2CCOCC2)nc2cc(OCC3CC3)ccc12` [Example 219, 7-(Cyclopropylmethoxy)-2-(((tetrahydro-2H-pyran-4-yl)thio)methyl)quinazolin-4(3H)-one] showed an IC50 below 1000 nM.
Take `CN(C)C(=O)N1CCC(SCc2nc3cc(NC4CCCC4)cc(F)c3c(=O)[nH]2)CC1` [Example 220, 4-(((7-(Cyclopentylamino)-5-fluoro-4-oxo-3,4-dihydroquinazolin-2-yl)methyl)thio)-N,N-dimethylpiperidine-1-carboxamide]: the IC50 is below 1000 nM.
As for `O=c1[nH]c(CSC2CCOCC2)nc2cc(NC3CCCC3)cc(CO)c12` [Example 224, 7-(Cyclopentylamino)-5-(hydroxymethyl)-2-(((tetrahydro-2H-pyran-4-yl)thio)methyl)quinazolin-4(3H)-one], the IC50 is 1000 to 10000 nM.
`O=c1[nH]c(CSC2CCOCC2)nc2cc(NC3CCCC3)cc(CF)c12` [Example 225, 7-(cyclopentylamino)-5-(fluoromethyl)-2-(((tetrahydro-2H-pyran-4-yl)thio)methyl)quinazolin-4(3H)-one] registered a half-inhibitory concentration (IC50) above 10000 nM.
The value for `O=c1[nH]c(CSC2CCNCC2)nc2cc(NC3CCCC3)c(F)cc12` [Example 226, 7-(Cyclopentylamino)-6-fluoro-2-((piperidin-4-ylthio)methyl)quinazolin-4(3H)-one hydrochloride] was below 1000 nM; that for `O=c1[nH]c(CSC2CCNCC2)nc2nc(OCC3CC3)ccc12` [Example 229, 7-(Cyclopropylmethoxy)-2-((piperidin-4-ylthio)methyl)pyrido[2,3-d]pyrimidin-4(3H)-one Hydrochloride] was below 1000 nM.
For `COc1cc2c(=O)[nH]c(CSC3CCNCC3)nc2cc1NCC1CCC1` [Example 230, 7-((Cyclobutylmethyl)amino)-6-methoxy-2-((piperidin-4-ylthio)methyl)quinazolin-4(3H)-one Hydrochloride], the IC50 lay within 1000 to 10000 nM.
In the case of `O=c1[nH]c(CSC2CCOCC2)nc2cc(NC3CCCC3(F)F)cc(F)c12` (centres unmarked) [Example 231, 7-((2,2-Difluorocyclopentyl)amino)-5-fluoro-2-(((tetrahydro-2H-pyran-4-yl)thio)methyl)quinazolin-4(3H)-one], the IC50 is below 1000 nM.
For `O=c1[nH]c(CSC2CCNCC2)nc2cc(NC3CCCC3)c(F)c(F)c12` [Example 232, 7-(Cyclopentylamino)-5,6-difluoro-2-((piperidin-4-ylthio)methyl)quinazolin-4(3H)-one Hydrochloride] the value was below 1000 nM; for `O=c1[nH]c(CSC2CCOCC2)nc2cc(N[C@H]3CC[C@H](N4CCOCC4)CC3)cc(F)c12` [Example 233, 5-Fluoro-7-((trans-4-morpholinocyclohexyl)amino)-2-(((tetrahydro-2H-pyran-4-yl)thio)methyl)quinazolin-4(3H)-one Trifluoroacetate], below 1000 nM.
`O=c1[nH]c(CSC2CCOCC2)nc2cc(N[C@H]3CC[C@@H](N4CCOCC4)CC3)cc(F)c12` [Example 234, 5-Fluoro-7-((cis-4-morpholinocyclohexyl)amino)-2-(((tetrahydro-2H-pyran-4-yl)thio)methyl)quinazolin-4(3H)-one Trifluoroacetate] had an IC50 of 1000 to 10000 nM.
For `O=c1[nH]c(CSC2CCOCC2)nc2cc(OCC3CCOCC3)cc(F)c12` [Example 236, 5-Fluoro-7-((tetrahydro-2H-pyran-4-yl)methoxy)-2-(((tetrahydro-2H-pyran-4-yl)thio)methyl)quinazolin-4(3H)-one] the value was below 1000 nM; for `Cc1cc(OCC2CCC2)cc2nc(CSC3CCOCC3)[nH]c(=O)c12` [Example 237, 7-(Cyclobutylmethoxy)-5-methyl-2-(((tetrahydro-2H-pyran-4-yl)thio)methyl)quinazolin-4(3H)-one], below 1000 nM.

The values are drawn from patent publication US10562891B2, “Quinazolinones as PARP14 inhibitors” (Ribon Therapeutics Inc., priority 2017, dated 2020).
